Experimental data from patent publication US20230083885A1, “MODULATORS OF INTEGRATED STRESS RESPONSE PATHWAY” (Praxis Biotech LLC, priority 2021, published 2023).
Where two headings read alike, the source gives them in different places.

Experiments:
[1] = system: ATF4; test: ATF4 expression inhibition assay (ATF4 5'UTR luciferase reporter, thapsigargin-stressed); assay type: cell-based; conditions: Homo sapiens, HEK-293T, read-out: ATF4 inhibition
Description: The ATF4 reporter was prepared by fusing the human full length 5′UTR of ATF4 (NCBI Accession No. BC022088.2) upstream of the firefly luciferase coding sequence lacking the initiator methionine. The fused sequence was cloned into pLenti-EF1a-C-Myc-DDK-IRES-Puro cloning vector (Origen #PS100085) using standard methods.
HEK293T cells carrying the ATF4 luciferase reporter were plated on 96-well plates (Nunc) at 10,000 cells per well. Cells were treated two days after seeding with 100 nM thapsigargin (Tg) (Sigma-Aldrich #T9033) in the presence of different concentrations of selected compounds ranging from 0.1 nM to 10 μM. Cells without treatment or cells treated with Tg alone were used as controls. Assay plates containing cells were incubated for 3 hours at 37° C.
Luciferase reactions were performed using Luciferase Assay System (Promega #E1501) as specified by the manufacturer. Luminescence was read with an integration time of 1 s and a gain of 110 using a Cytation-5 multi-mode microplate reader (BioTek).

[2] = system: Chinese hamster ovary (CHO) cells; test: Protein synthesis assay (puromycin incorporation, Western blot); assay type: cell-based; conditions: Cricetulus griseus, read-out: % Protein synthesis relative to untreated (1 μM test compound)
Description: Chinese hamster ovary (CHO) cells were maintained at 37° C. and 5% CO2 in Dulbecco's Modified Eagle's Media (DMEM) supplemented with 10% fetal bovine serum, 2 mM L-glutamine, 100 U/ml penicillin, and 100 μg/ml streptomycin. After reaching 80% of confluence, cells were detached and seeded on 6 well plates in complete media, allowed to recover overnight and treated for 2 hours with 1 μM of the test compound (to assess protein synthesis levels in unstressed condition), or for 2 hours with 300 nM Tg in the presence of 1 μM of the test compound (to assess the recovery of protein synthesis in a stressed condition). Cells with Tg alone were used as controls.
After the 2 hours treatments, media were replaced by adding 10 μg/ml puromycin (Sigma Aldrich #P8833) in complete media for 30 min. Media were removed and cells were lysed with SDS-PAGE lysis buffer. Lysates were transferred to 1.5 ml tubes and sonicated for 3 min and total protein amount were quantified using BCA Protein Assay Kit (Pierce). Equal amount of protein (30 μg) was loaded on SDS-PAGE gels.
A HRP-conjugated secondary antibody (Rockland) was employed to detect immune-reactive bands using enhanced chemiluminescence (ECL Western Blotting Substrate, Pierce). Quantification of protein bands was done by densitometry using ImageJ software.
The percentage levels were normalized to the media alone condition, which correspond to 100% protein synthesis. […]

[3] = HEK293T cells carrying ATF4 luciferase reporter, 100 nM thapsigargin, 3 hours
[4] = unstressed CHO cells (without Tg), 1 μM test compound, 2 hours, media alone = 100%

| SMILES | IC50 [1, 3] | activity at 1 µM [2, 4] | IC50 ([1]; 3 h) | activity at 1 µM ([2]; CHO, 2 h) |
| --- | --- | --- | --- | --- |
| O=C(COc1ccc(Cl)c(F)c1)N[C@H]1CC[C@H](c2nnc([C@@H]3CNc4cc(Cl)ccc4O3)o2)CC1 (single isomer, unassigned) [Compound 42] | < 10 nM | 79.9% | – | – |
| O=C(COc1ccc(Cl)c(F)c1)N[C@H]1CC[C@H](c2nnc([C@H]3CNc4cc(Cl)ccc4O3)o2)CC1 (single isomer, unassigned) [Compound 43] | < 10 nM | 86.3% | – | – |
| O=C(NC[C@H]1CC[C@H](c2nnc(-c3ccc(Cl)cc3)o2)CC1)c1ccc2cc(Cl)ccc2n1 [Compound 1, trans-6-chloro-N-((4-(5-(4-chlorophenyl)-1,3,4-oxadiazol-2-yl)cyclohexyl)methyl)quinoline-2-carboxamide] | – | – | > 1000 nM | 158% |
| O=C(COc1ccc(Cl)cc1)NC[C@H]1CC[C@H](c2nnc(-c3ccc(Cl)cc3)o2)CC1 [Compound 4, trans-2-(4-chlorophenoxy)-N-((-4-(5-(4-chlorophenyl)-1,3,4-oxadiazol-2-yl)cyclohexyl)methyl)acetamide] | – | – | > 1000 nM | 123% |
| O=C(COc1ccc(Cl)cc1)N[C@H]1CC[C@H](c2nnc(-c3ccc(Cl)cc3)o2)CC1 [Compound 8, trans-2-(4-chlorophenoxy)-N-(4-(5-(4-chlorophenyl)-1,3,4-oxadiazol-2-yl)cyclohexyl)acetamide] | – | – | < 10 nM | 96.9% |
| O=C(N[C@H]1CC[C@H](c2nnc(COc3ccc(Cl)cc3)o2)CC1)C1CNc2cc(Cl)ccc2O1 (stereo partly drawn) [Compound 11, trans-6-chloro-N-(4-(5-((4-chlorophenoxy)methyl)-1,3,4-oxadiazol-2-yl)cyclohexyl)-3,4-dihydro-2H-benzo[b][1,4]oxazine-2-carboxamide] | 10 to 100 nM | 140% | – | – |
| O=C(COc1ccc(Cl)c(F)c1)N[C@H]1CC[C@H](c2nnc(COc3ccc(Cl)c(F)c3)o2)CC1 [Compound 13, trans-2-(4-chloro-3-fluorophenoxy)-N-(4-(5-((4-chloro-3-fluorophenoxy)methyl)-1,3,4-oxadiazol-2-yl)cyclohexyl)acetamide] | < 10 nM | 134% | – | – |
| O=C(N[C@H]1CC[C@H](c2nnc(COc3ccc(Cl)cc3)o2)CC1)c1cnc(C(F)F)cn1 [Compound 16, trans-N-(4-(5-((4-chlorophenoxy)methyl)-1,3,4-oxadiazol-2-yl)cyclohexyl)-5-(difluoromethyl)pyrazine-2-carboxamide] | > 1000 nM | 115% | – | – |
| O=C(COc1ccc(Cl)c(F)c1)N[C@H]1CC[C@H](c2nnc(C3CNc4cc(Cl)ccc4O3)o2)CC1 (stereo partly drawn) [Compound 18, trans-N-(4-(5-(6-chloro-3,4-dihydro-2H-benzo[b][1,4]oxazin-2-yl)-1,3,4-oxadiazol-2-yl)cyclohexyl)-2-(4-chloro-3-fluorophenoxy)acetamide] | < 10 nM | 127% | – | – |
| O=C(Nc1ccc2cc(Cl)ccc2n1)[C@H]1CC[C@H](c2nnc(-c3ccc(Cl)cc3)o2)CC1 [Compound 19, trans-4-(5-(4-chlorophenyl)-1,3,4-oxadiazol-2-yl)-N-(6-chloroquinolin-2-yl)cyclohexane-1-carboxamide] | – | – | 10 to 100 nM | 100% |
| O=C(Nc1ccc2cc(Cl)ccc2n1)[C@H]1CC[C@H](c2nnc(C3CCC(F)(F)CC3)o2)CC1 [Compound 28, trans-N-(6-chloroquinolin-2-yl)-4-(5-(4,4-difluorocyclohexyl)-1,3,4-oxadiazol-2-yl)cyclohexanecarboxamide] | 100 to 1000 nM | 23.8% | – | – |

Further lines, with some results ahead:

| IC50 [1, 3] | SMILES | activity at 1 µM [2, 4] | IC50 ([1]; 3 h) | activity at 1 µM ([2]; CHO, 2 h) |
| --- | --- | --- | --- | --- |
| 100 to 1000 nM | O=C(NC[C@H]1CC[C@H](c2nnc(-c3ccc(Cl)cc3)o2)CC1)c1cc2cc(Cl)ccc2o1 [Compound 2, trans-5-chloro-N-((4-(5-(4-chlorophenyl)-1,3,4-oxadiazol-2-yl)cyclohexyl)methyl)benzofuran-2-carboxamide] | 136% | – | – |
| 10 to 100 nM | O=C(COc1ccc(Cl)c(F)c1)NC[C@H]1CC[C@H](c2nnc(-c3ccc(Cl)cc3)o2)CC1 [Compound 3, trans-2-(4-chloro-3-fluorophenoxy)-N-((4-(5-(4-chlorophenyl)-1,3,4-oxadiazol-2-yl)cyclohexyl)methyl)acetamide] | 138% | – | – |
| < 10 nM | O=C(N[C@H]1CC[C@H](c2nnc(-c3ccc(Cl)cc3)o2)CC1)c1ccc2cc(Cl)ccc2n1 [Compound 5, trans-6-chloro-N-(4-(5-(4-chlorophenyl)-1,3,4-oxadiazol-2-yl)cyclohexyl)quinoline-2-carboxamide] | 139% | – | – |
| < 10 nM | O=C(N[C@H]1CC[C@H](c2nnc(-c3ccc(Cl)cc3)o2)CC1)c1cc2cc(Cl)ccc2o1 [Compound 6, trans-5-chloro-N-(4-(5-(4-chlorophenyl)-1,3,4-oxadiazol-2-yl)cyclohexyl)benzofuran-2-carboxamide] | 111% | – | – |
| < 10 nM | O=C(COc1ccc(Cl)c(F)c1)N[C@H]1CC[C@H](c2nnc(-c3ccc(Cl)cc3)o2)CC1 [Compound 7, trans-2-(4-chloro-3-fluorophenoxy)-N-(4-(5-(4-chlorophenyl)-1,3,4-oxadiazol-2-yl)cyclohexyl)acetamide] | 80.9% | – | – |
| 10 to 100 nM | O=C(N[C@H]1CC[C@H](c2nnc(COc3ccc(Cl)cc3)o2)CC1)c1ccc2cc(Cl)ccc2n1 [Compound 9, trans-6-chloro-N-(4-(5-((4-chlorophenoxy)methyl)-1,3,4-oxadiazol-2-yl)cyclohexyl)quinoline-2-carboxamide] | 204% | – | – |
| < 10 nM | O=C(N[C@H]1CC[C@H](c2nnc(COc3ccc(Cl)cc3)o2)CC1)c1cc2cc(Cl)ccc2o1 [Compound 10, trans-5-chloro-N-(4-(5-((4-chlorophenoxy)methyl)-1,3,4-oxadiazol-2-yl)cyclohexyl)benzofuran-2-carboxamide] | 165% | – | – |
| < 10 nM | O=C(COc1ccc(Cl)c(F)c1)N[C@H]1CC[C@H](c2nnc(COc3ccc(Cl)cc3)o2)CC1 [Compound 12, trans-2-(4-chloro-3-fluorophenoxy)-N-(4-(5-((4-chlorophenoxy)methyl)-1,3,4-oxadiazol-2-yl)cyclohexyl)acetamide] | 144% | – | – |
| < 10 nM | O=C(COc1ccc(Cl)c(F)c1)N[C@H]1CC[C@H](c2nnc(-c3ccc4cc(Cl)ccc4n3)o2)CC1 [Compound 14, trans-2-(4-chloro-3-fluorophenoxy)-N-(4-(5-(6-chloroquinolin-2-yl)-1,3,4-oxadiazol-2-yl)cyclohexyl)acetamide] | 176% | – | – |
| 10 to 100 nM | O=C(N[C@H]1CC[C@H](c2nnc(-c3ccc(Cl)cc3)o2)CC1)c1cnc(C(F)F)cn1 [Compound 15, trans-N-(4-(5-(4-chlorophenyl)-1,3,4-oxadiazol-2-yl)cyclohexyl)-5-(difluoromethyl)pyrazine-2-carboxamide] | 103% | – | – |
| < 10 nM | O=C(COc1ccc(Cl)c(F)c1)N[C@H]1CC[C@H](c2nnc(-c3ccc(Cl)c(F)c3)o2)CC1 [Compound 17, trans-2-(4-chloro-3-fluorophenoxy)-N-(4-(5-(4-chloro-3-fluorophenyl)-1,3,4-oxadiazol-2-yl)cyclohexyl)acetamide] | 105% | – | – |
